This note sets out measurements from article PMC11617653, “Macrocyclic Inhibitors Targeting the Prime Site of the Fibrinolytic Serine Protease Plasmin” (Chemmedchem, 2024).

Where “and” joins values, the source holds several entries; their conditions need not be identical. Equal entries are not always repeated. Positions of bridges follow the written chain, without caps; N, C: chain ends. Non-standard residues stand in square brackets, D forms with d. Residues, ends and D or L forms follow the SMILES beside them. Phe(4-NH2) = Nc1ccc(C[C@H](N)C(=O)O)cc1; Trx = NC[C@H]1CC[C@H](C(=O)O)CC1; βAla = NCCC(=O)O

The first assay deals with T1, human plasmin (Homo sapiens, UniProt P00747).
T1 construct: purchased Calbiochem
T1 sequence (P00747 581-810): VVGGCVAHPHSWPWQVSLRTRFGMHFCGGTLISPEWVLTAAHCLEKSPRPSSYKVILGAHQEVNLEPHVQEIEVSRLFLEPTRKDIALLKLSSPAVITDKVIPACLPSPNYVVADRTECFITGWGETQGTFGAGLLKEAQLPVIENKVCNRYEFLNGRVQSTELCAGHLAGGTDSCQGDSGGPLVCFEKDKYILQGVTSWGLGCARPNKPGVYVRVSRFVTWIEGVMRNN
T1 sequence (P00747 97-580): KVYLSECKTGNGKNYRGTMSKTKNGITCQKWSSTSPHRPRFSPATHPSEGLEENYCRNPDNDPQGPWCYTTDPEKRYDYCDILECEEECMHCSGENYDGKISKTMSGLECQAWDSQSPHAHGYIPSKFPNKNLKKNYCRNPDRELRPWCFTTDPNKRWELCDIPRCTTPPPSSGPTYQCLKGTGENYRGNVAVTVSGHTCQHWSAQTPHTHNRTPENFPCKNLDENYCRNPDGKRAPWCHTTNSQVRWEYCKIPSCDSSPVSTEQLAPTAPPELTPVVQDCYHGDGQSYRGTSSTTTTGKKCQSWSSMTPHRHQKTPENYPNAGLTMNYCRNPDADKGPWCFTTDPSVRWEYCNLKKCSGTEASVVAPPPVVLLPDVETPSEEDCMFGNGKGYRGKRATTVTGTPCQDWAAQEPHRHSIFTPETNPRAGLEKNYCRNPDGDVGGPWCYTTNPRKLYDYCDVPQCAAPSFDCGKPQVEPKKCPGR
The assay is described as follows: Inhibition of human plasmin, fluorogenic substrate Mes-DArg-Phe-Arg-AMC. The class given is biochemical.
Details: not given
Here is the method: All inhibitors prepared in this study act as reversible competitive plasmin inhibitors, their K i values were calculated by fitting the steady‐state velocities as function of the inhibitor concentrations using equation 1. 4‐aminophenylalanine (Phe(4‐NH2)) was incorporated as P1’ residue in the first inhibitor series, which enabled a macrocyclization via amide bond formation from its side chain amino group using various linker segments and P2’ residues (Table 1). […] The improved potency of SFTI‐1 analogues with basic P2’ residues[9] stimulated the incorporation of Arg in that position leading to inhibitor 4 with a slightly stronger inhibitory potency. A significant improvement could be achieved when using 3‐ or 4‐aminophenylacetic acid as P2’ group in combination with elongated linker residues (5‐6). […] However, inhibitor 9 is a twofold stronger plasmin inhibitor compared to its analogue 8.
For these inhibitors the steady‐state velocities were calculated by fitting the progress curves to equation 2 providing an additional apparent first‐order rate constant k obs for each curve. The steady‐state rates were used for K i determination with equation 1 and the k obs values for the calculation of the association rate constants k on according to equation 3. The dissociation rate constant k off was calculated from the known K i and k on values using equation 4. The enzyme kinetic evaluation of slow‐binding inhibitors of plasmin has already been described in detail in our two previous publications.[11, 12]
All measurements were conducted as triplicates in black 96‐well FluoroNunc MaxiSorp plates (Nunc, Langenselbold, Germany) and suitable fluorogenic substrates at room temperature. […] Each well contained a total volume of 180 μL consisting of 100 μL of inhibitor dissolved in buffer, 40 μL of the substrate Mes‐DArg‐Phe‐Arg‐AMC[11] (100 μM in assay, KM=16.1 μM) dissolved in water and 40 μL of plasmin solution (0.27 nM in assay). The following equations were used for the enzyme kinetic analysis as described in the results section and in our previous publications.[11, 12] (1) [drawing 71] (2) [drawing 72] (3) [drawing 73] (4) [drawing 74]
In the case of `Cc1ccc2cc1NC(=O)Cc1ccc(cc1)NC(=O)Cc1ccc(cc1)NC(=O)[C@@H](NC(=O)[C@H]1CC[C@H](CN)CC1)Cc1ccc-2cc1` [inhibitor 24], the “fold enhanced plasmin potency compared with compound 22” value was 4 fold.

The assay is the same for the next values; noted with them: K i (nM), inhibition of plasmin, series two, substituted Bpa in P1', and acyclic analogues; steady-state velocities, equation 1.
As a reminder, the Ki is the equilibrium dissociation constant of an inhibitor or competing ligand from its target. As for `Cc1ccc2cc1NC(=O)CCCCCNC(=O)Cc1ccc(cc1)NC(=O)[C@@H](NC(=O)[C@H]1CC[C@H](CN)CC1)Cc1ccc-2cc1` [inhibitor 22], the inhibition constant Ki is 42 nM and 42.1 nM.
`Cc1ccc2cc1NC(=O)C1CCC(CC1)CNC(=O)Cc1ccc(cc1)NC(=O)C(NC(=O)C1CCC(CN)CC1)Cc1ccc-2cc1` (stereo not drawn) [inhibitor 23]: the Ki was found to be 109 ± 4 nM.
On the same count and under the same terms, as for `Cc1ccc2cc1NC(=O)Cc1ccc(cc1)NC(=O)Cc1ccc(cc1)NC(=O)[C@@H](NC(=O)[C@H]1CC[C@H](CN)CC1)Cc1ccc-2cc1` [inhibitor 24], the figure is 10.5 ± 1.4 nM; as for `Cc1ccc2cc1NC(=O)CNC(=O)CCNC(=O)Cc1ccc(cc1)NC(=O)[C@@H](NC(=O)[C@H]1CC[C@H](CN)CC1)Cc1ccc-2cc1` [inhibitor 25], 33.8 ± 1.4 nM; as for `Cc1ccc2cc1NC(=O)CCNC(=O)CNC(=O)Cc1ccc(cc1)NC(=O)[C@@H](NC(=O)[C@H]1CC[C@H](CN)CC1)Cc1ccc-2cc1` [inhibitor 26], 33.1 ± 3.2 nM.
For the compound `Cc1ccc2cc1NC(=O)CCCNC(=O)CNC(=O)Cc1ccc(cc1)NC(=O)[C@@H](NC(=O)[C@H]1CC[C@H](CN)CC1)Cc1ccc-2cc1` [inhibitor 27], the inhibitory constant (Ki) was 17 ± 0.6 nM.
Same read-out and setting: the result for `Cc1ccc2cc1NC(=O)CNC(=O)CCCCNC(=O)Cc1ccc(cc1)NC(=O)[C@@H](NC(=O)[C@H]1CC[C@H](CN)CC1)Cc1ccc-2cc1` [inhibitor 29] reads 62.6 ± 2.3 nM.
`Cc1ccc2cc1NC(=O)[C@H](N)CCCCNC(=O)Cc1ccc(cc1)NC(=O)[C@@H](NC(=O)[C@H]1CC[C@H](CN)CC1)Cc1ccc-2cc1` [inhibitor 34]: the inhibitory constant (Ki) amounted to 36.5 ± 0.7 nM.

Still in this assay, the particulars now being: K i (μM), inhibition of plasmin, series one, 4-aminophenylalanine in P1'; steady-state velocities, equation 1.
Regarding `NC[C@H]1CC[C@H](C(=O)N[C@H]2Cc3ccc(cc3)NC(=O)CCNC(=O)CNC2=O)CC1` [inhibitor 3] (H-[Trx][Phe(4-NH2)]G[βAla]; lactam 2-C), the Ki came to 150000 ± 31000 nM.
Regarding `N=C(N)NCCC[C@@H]1NC(=O)[C@@H](NC(=O)[C@H]2CC[C@H](CN)CC2)Cc2ccc(cc2)NC(=O)CCNC1=O` [inhibitor 4] (H-[Trx][Phe(4-NH2)]R[βAla]; lactam 2-C), the Ki is 110000 ± 56000 nM.
The same measure, in the same setting: the result for `NC[C@H]1CC[C@H](C(=O)N[C@H]2Cc3ccc(cc3)NC(=O)CCCCCNC(=O)Cc3cccc(c3)NC2=O)CC1` [inhibitor 5] reads 5810 ± 1090 nM; that for `NC[C@H]1CC[C@H](C(=O)N[C@H]2Cc3ccc(cc3)NC(=O)CCCCCNC(=O)Cc3ccc(cc3)NC2=O)CC1` [inhibitor 6], 1380 ± 150 nM; that for `NC[C@H]1CC[C@H](C(=O)N[C@H]2Cc3ccc(cc3)NC(=O)CCCCNC(=O)Cc3ccc(cc3)NC2=O)CC1` [inhibitor 7], 2450 ± 20 nM.
The same measure, in the same setting: as for `NC[C@H]1CC[C@H](C(=O)N[C@H]2Cc3ccc(cc3)NC(=O)CCNC(=O)CNC(=O)Cc3ccc(cc3)NC2=O)CC1` [inhibitor 8], the figure is 5530 ± 420 nM.
Same read-out and setting: the result for `NC[C@H]1CC[C@H](C(=O)N[C@H]2Cc3ccc(cc3)NC(=O)CNC(=O)CCNC(=O)Cc3ccc(cc3)NC2=O)CC1` [inhibitor 9] reads 2820 ± 200 nM; that for `CC(C)C[C@@H]1NC(=O)CCNC(=O)Cc2ccc(cc2)NC(=O)[C@@H](NC(=O)[C@H]2CC[C@H](CN)CC2)Cc2ccc(cc2)NC1=O` [inhibitor 10], 3330 ± 410 nM; that for `CC(C)C[C@H]1NC(=O)CCNC(=O)Cc2ccc(cc2)NC(=O)[C@@H](NC(=O)[C@H]2CC[C@H](CN)CC2)Cc2ccc(cc2)NC1=O` [inhibitor 11], 3850 ± 280 nM.
Turning to `NC[C@H]1CC[C@H](C(=O)N[C@H]2Cc3ccc(cc3)NC(=O)[C@H](Cc3ccccc3)NC(=O)CCNC(=O)Cc3ccc(cc3)NC2=O)CC1` [inhibitor 12, (1r,4S)‐4‐(aminomethyl)‐N‐((4S,9S)‐9‐benzyl‐3,8,11,15‐tetraoxo‐2,7,10,14‐tetraaza‐1,6(1,4)‐dibenzenacyclohexadecaphane‐4‐yl)cyclohexane‐1‐carboxamide], the inhibitory constant (Ki) was 710 nM and 714 nM.

The same assay, now with this note: compared with cyclic inhibitor 28.
Regarding `Cc1ccc2cc1NC(=O)CNC(=O)CCNC(=O)Cc1ccc(cc1)NC(=O)[C@@H](NC(=O)[C@H]1CC[C@H](CN)CC1)Cc1ccc-2cc1` [inhibitor 25], the “fold weaker plasmin inhibition than inhibitor 28” value was “at least 20 fold”.
On the same count and under the same terms, the result for `Cc1ccc2cc1NC(=O)CCCNC(=O)CNC(=O)Cc1ccc(cc1)NC(=O)[C@@H](NC(=O)[C@H]1CC[C@H](CN)CC1)Cc1ccc-2cc1` [inhibitor 27] reads “at least 20 fold”.
